The subject of data set [1] is clone of Th2 lymphocytes (D10.G4.1).
Description: Cell toxicity tests were carried out on a clone of Th2 lymphocytes (D10.G4.1) through flow cytometry using Propidium Iodide in order to determine cell death.
After this time, the cells were washed and incubated with 5 μg/ml of Propidium Iodide during 1 min. The samples treated in this way were analysed by cytometry using BD FACSCanto™ equipment.
For data set [2], the target named is T1, catalytic domain of PDE7A1 (aa. 130-482) (Homo sapiens, UniProt Q13946).
T1 construct: The catalytic domain of PDE7A1 (aá. 130-482); made in house; host or cells: E. coli BL21
The data set is described as follows: PDE inhibitor test, PDE7A1 (3H-cAMP hydrolysis). It is filed as biochemical. Conditions: substrate at 1/10 of KM; six inhibitor concentrations; duplicate; read-out: Inhibitor data of PDE7A1 (CI50).

The target of data set [3] is T2, complete enzyme of PDE4D2 (aa. 1-507) (Homo sapiens, UniProt Q08499).
T2 construct: the complete enzyme of PDE4D2 (aa. 1-507); made in house; host or cells: E. coli BL21
Put plainly: PDE inhibitor test, PDE4D2 (3H-cAMP hydrolysis). Conditions: substrate at 1/10 of KM; six inhibitor concentrations; duplicate; read-out: Inhibitor data of PDE4D2 (CI50). The class given is biochemical. The method, then:
The catalytic domain of PDE7A1 (aá. 130-482) and the complete enzyme of PDE4D2 (aa. 1-507) were subcloned in pET vectors, overexpressed in E. coli strain BL21, and purified to homogeneity as described in the bibliography (Wang, H., Liu, Y., Chen, Y., Robinson, H., and Ke, H. Multiple elements jointly determine inhibitor selectivity of cyclic nucleotide phosphodiesterases 4 and 7. J. Biol. Chem. 2005, 280, 30949-30955). The enzymatic activities of PDE7A1 and PDE4D2 were tested through incubation of the enzymes with 100 μL of a reaction mixture that contained 50 mM Tris.HCl (pH 8.5), 50 mM MgCl2, 5 mM DTT, and ^3H-cAMP (20000 cpm per test, Sigma-Aldrich) at room temperature during 10 minutes. The reactions were concluded by adding 200 μL 0.2 M ZnSO4 when 20-50% of the cAMP was hydrolysed. The product of the reaction, ^3H-AMP, was precipitated by adding 200 μL 0.25 M Ba(OH)2 (Sigma-Aldrich), while the unreacted ^3H-AMPc remained in the supernatant. Radioactivity of the supernatant was measured with a mixture of scintillation liquid (ScintiSafe PlusTM 50%, Fisher Scientific) using the counter LKB RackBeta 1214.
For inhibitor measurements, six concentrations of inhibitors were used in the presence of a substrate concentration equivalent to 1/10 of the KM and the enzyme concentration that hydrolyses 50% of the substrate. […] All experiments were carried out in duplicate.

A further data set concerns T-lymphocytes. The data set is described as follows: Study of intracellular cAMP levels (cAMP Biotrak Enzymeimmunoassay). The class given is cell-based. Conditions: inhibitor alone (FIG. 5). As for the experimental part: PDE inhibition has the direct effect of increasing cAMP, since their degradation is prevented. In order to verify this effect on the cell system of T-lymphocytes two compounds of formula (I) of the invention were chosen, specifically: TC 3.6 and TC 3.14 and cAMP concentration was measured using the cAMP Biotrak Enzymeimmunoassay System of Amersham Biosciences kit.

Where [4] appears, read: D10.G4.1 cells, 1×10^6 cells/ml, 48 h.

Like-named read-outs stand apart in the source and are kept apart here.

T1 sequence (Q13946 130-482): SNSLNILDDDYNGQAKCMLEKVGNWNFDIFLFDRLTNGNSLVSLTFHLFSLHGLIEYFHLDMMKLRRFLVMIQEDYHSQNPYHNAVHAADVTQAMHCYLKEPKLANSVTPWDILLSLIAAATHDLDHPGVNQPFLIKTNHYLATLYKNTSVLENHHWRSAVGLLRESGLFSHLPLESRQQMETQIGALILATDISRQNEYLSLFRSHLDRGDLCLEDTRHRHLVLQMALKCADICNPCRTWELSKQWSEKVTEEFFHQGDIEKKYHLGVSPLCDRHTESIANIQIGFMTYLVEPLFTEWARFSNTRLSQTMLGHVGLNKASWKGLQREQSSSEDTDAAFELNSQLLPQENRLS
T2 sequence (Q08499 303-809): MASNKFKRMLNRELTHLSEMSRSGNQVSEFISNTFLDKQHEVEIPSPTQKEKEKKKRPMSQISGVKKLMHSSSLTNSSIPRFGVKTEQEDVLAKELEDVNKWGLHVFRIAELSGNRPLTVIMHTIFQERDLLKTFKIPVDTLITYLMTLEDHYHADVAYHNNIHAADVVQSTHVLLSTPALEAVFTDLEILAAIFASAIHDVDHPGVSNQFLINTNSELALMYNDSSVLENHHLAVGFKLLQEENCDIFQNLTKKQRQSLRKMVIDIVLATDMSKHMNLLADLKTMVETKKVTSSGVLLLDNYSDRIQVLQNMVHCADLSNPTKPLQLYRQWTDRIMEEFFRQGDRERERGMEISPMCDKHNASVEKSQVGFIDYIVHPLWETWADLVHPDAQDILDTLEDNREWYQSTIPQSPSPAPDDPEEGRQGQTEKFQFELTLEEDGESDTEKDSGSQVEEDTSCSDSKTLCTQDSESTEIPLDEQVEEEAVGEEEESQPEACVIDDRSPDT

As to `CSc1nc2c(C)cccc2c(=O)n1-c1ccccc1` [TC3.15b, 3-Phenyl-8-methyl-2-methylthio-4-oxo-3,4-dihydroquinazoline], in data set [1], the “cell toxicity (in words)” value is “most moderate toxicity”. In addition, the “maximum concentration at which more than 80% cellular viability was maintained in comparison to the control of cells without inhibitor” value in data set [1] (mouse, 48 h) was found to be 600 µM. The IC50 in data set [2] was about 1000 nM.
Consider `CSc1nc2ccccc2c(=S)n1-c1c(F)cccc1F` [TC3.1, 3-(2,6-difluorophenyl)-2-methylthio-4-thioxo-3,4-dihydroquinazoline], for which, in data set [1] (mouse, 48 h), the “maximum concentration at which more than 80% cellular viability was maintained in comparison to the control of cells without inhibitor” value turned out to be 10 µM. The IC50 in data set [2] lay within 100 to 1000 nM.
`CSc1nc2c(C)cccc2c(=O)n1-c1ccc(F)c(F)c1F` [TC3.24, 3-(2,3,4-Trifluorophenyl)-8-methyl-2-methylthio-4-oxo-3,4-dihydroquinazoline]: in data set [2], the IC50 was over 1000 nM.
As to `CSc1nc2ccc(Br)cc2c(=O)n1-c1c(F)cccc1F` [TC3.36, 6-Bromo-3-(2,6-difluorophenyl)-2-methylthio-4-oxo-3,4-dihydroquinazoline], the “maximum concentration at which more than 80% cellular viability was maintained in comparison to the control of cells without inhibitor” value in data set [1] (mouse, 48 h) was determined as 10 µM. Also, the IC50 in data set [3] was 4500 ± 100 nM; in data set [2], 240 ± 30 nM.
Regarding `CSc1nc2ccc(Br)cc2c(=O)n1-c1ccccc1Br` [TC3.35, 6-Bromo-3-(2-bromophenyl)-2-methylthio-4-oxo-3,4-dihydroquinazoline], the “maximum concentration at which more than 80% cellular viability was maintained in comparison to the control of cells without inhibitor” value in data set [1] (mouse, 48 h) was determined as 10 µM. Further, the IC50 in data set [2] amounted to 1860 ± 180 nM.
Turning to `O=c1c2cc(Br)ccc2[nH]c(=S)n1-c1c(F)cccc1F` [TC3.29, 6-Bromo-3-(2,6-difluorophenyl)-4-oxo-2-thioxo-1,2,3,4-tetrahydroquinazoline], the IC50 in data set [2] is over 10000 nM.
On to `CSc1nc2c(C)cccc2c(=O)n1-c1c(F)cccc1F` [TC3.23, 3-(2,6-Difluorophenyl)-8-methyl-2-methylthio-4-oxo-3,4-dihydroquinazoline], for which the “maximum concentration at which more than 80% cellular viability was maintained in comparison to the control of cells without inhibitor” value in data set [1] (mouse, 48 h) turned out to be 10 µM. Moreover, the results for the IC50 in data set [3] and in data set [2] were 1400 ± 200 nM and 130 ± 20 nM, respectively.
In the case of `COc1ccc(C2CNC(=O)C2)cc1OC1CCCC1` (stereo not drawn) [Rolipram, reference compound], the “maximum concentration at which more than 80% cellular viability was maintained in comparison to the control of cells without inhibitor” value in data set [1] (setting [4]) is over 1000 µM.
As for `Cc1cccc2c(=O)n(-c3ccccc3Br)c(=S)[nH]c12` [TC3.14, 3-(2-Bromophenyl)-8-methyl-4-oxo-2-thioxo-1,2,3,4-tetrahydroquinazoline], the “cell toxicity (in words)” value in data set [1] is listed as “most moderate toxicity”. Further, the “maximum concentration at which more than 80% cellular viability was maintained in comparison to the control of cells without inhibitor” value in data set [1] (mouse, 48 h) stood at 600 µM. In addition, the IC50 in data set [3] came out at 34000 ± 5000 nM; in data set [2], 1700 ± 100 nM. In addition, in the data set on T-lymphocytes, the “amount of intracellular cAMP in relation to the control” value is “increased in a statistically significant manner”.
`Cc1ccc([N+](=O)[O-])cc1S(=O)(=O)N(C)C` [BRL50481, 3-(N,N-dimethylsulfonamide)-4-methyl-nitrobenzene, reference compound]: in data set [1] (setting [4]), the “maximum concentration at which more than 80% cellular viability was maintained in comparison to the control of cells without inhibitor” value was over 1000 µM.
With `CSc1nc2ccc(Br)cc2c(=O)n1-c1ccc(F)c(F)c1F` [TC3.32, 6-Bromo-3-(2,3,4-trifluorophenyl)-2-methylthio-4-oxo-3,4-dihydroquinazoline], the “maximum concentration at which more than 80% cellular viability was maintained in comparison to the control of cells without inhibitor” value in data set [1] (mouse, 48 h) was determined as 100 µM. The IC50 in data set [2] was 2100 ± 100 nM.
Take “3-(2,6-difluorophenyl)-2-methylthio-4-thioxo-3,4-dihydroquinazoline [TC2.43]”: the “maximum concentration at which more than 80% cellular viability was maintained in comparison to the control of cells without inhibitor” value in data set [1] (setting [4]) is 5 µM.
For the compound `CSc1nc2ccccc2c(=S)n1-c1ccccc1` [TC3.9, 3-Phenyl-2-methylthio-4-thioxo-3,4-dihydroquinazoline], the “maximum concentration at which more than 80% cellular viability was maintained in comparison to the control of cells without inhibitor” value in data set [1] (mouse, 48 h) came to 100 µM. Moreover, the results for the IC50 in data set [3] and in data set [2] were 8000 ± 1200 nM and 840 ± 10 nM, respectively.
As for `Fc1cccc(F)c1-n1c(=S)[nH]c2ccccc2c1=S` [TC2.49, 3-(2,6-Difluorophenyl)-2,4-dithioxo-1,2,3,4-tetrahydroquinazoline], the “maximum concentration at which more than 80% cellular viability was maintained in comparison to the control of cells without inhibitor” value in data set [1] (mouse, 48 h) stood at 50 µM. Besides, the IC50 in data set [2] is about 1000 nM.
Take `Cc1cccc2c(=O)n(-c3c(F)cccc3F)c(=S)[nH]c12` [TC3.16, 3-(2,6-Difluorophenyl)-8-methyl-4-oxo-2-thioxo-1,2,3,4-tetrahydroquinazoline]: in data set [2], the IC50 was over 1000 nM.
For `CSc1nc2ccccc2c(=S)n1-c1ccccc1Br` [TC3.13, 3-(2-bromophenyl)-2-methylthio-4-thioxo-3,4-dihydroquinazoline], the “maximum concentration at which more than 80% cellular viability was maintained in comparison to the control of cells without inhibitor” value in data set [1] (mouse, 48 h) was determined as 10 µM. Also, the IC50 in data set [2] lay within 100 to 1000 nM.
Regarding `O=c1c2cc(Br)ccc2[nH]c(=S)n1-c1ccccc1Br` [TC3.28, 6-Bromo-3-(2-bromophenyl)-4-oxo-2-thioxo-1,2,3,4-tetrahydroquinazoline], in data set [2], the IC50 was about 10000 nM.
On to `S=c1[nH]c2ccccc2c(=S)n1-c1ccccc1` [TC3.6, 3-Phenyl-2,4-dithioxo-1,2,3,4-tetrahydroquinazoline], for which the “cell toxicity (in words)” value in data set [1] (D10.G4.1 cells, 48 h, among the compounds of new synthesis) is reported as “most moderate toxicity”. Further, in data set [1] (mouse, 48 h), the “maximum concentration at which more than 80% cellular viability was maintained in comparison to the control of cells without inhibitor” value was 1000 µM. In addition, the IC50 was 5700 ± 30 nM in data set [3] and 1040 ± 80 nM in data set [2]. Also, the “amount of intracellular cAMP in relation to the control” value in the data set on T-lymphocytes is “increased in a statistically significant manner”.
On to `O=c1c2cc(Br)ccc2[nH]c(=S)n1-c1ccccc1` [TC2.30A, 6-Bromo-3-phenyl-4-oxo-2-thioxo-1,2,3,4-tetrahydroquinazoline], for which the IC50 in data set [2] is over 10000 nM.
Same read-out and setting: to `CSc1nc2ccccc2c(=S)n1-c1ccc(F)c(F)c1F` [TC2.51, 3-(2,3,4-trifluorophenyl)-2-methylthio-4-thioxo-3,4-dihydroquinazoline] belongs over 1000 nM; to `Fc1ccc(-n2c(=S)[nH]c3ccccc3c2=S)c(F)c1F` [TC2.45, 3-(2,3,4-Trifluorophenyl)-2,4-dithioxo-1,2,3,4-tetrahydroquinazoline], over 1000 nM.
The same measure, in the same setting: for `Cc1cccc2c(=O)n(-c3ccc(F)c(F)c3F)c(=S)[nH]c12` [TC3.17, 3-(2,3,4-Trifluorophenyl)-8-methyl-4-oxo-2-thioxo-1,2,3,4-tetrahydroquinazoline] the value was over 10000 nM; for `O=c1c2cc(Br)ccc2[nH]c(=S)n1-c1ccc(F)c(F)c1F` [TC3.30, 6-Bromo-3-(2,3,4-trifluorophenyl)-4-oxo-2-thioxo-1,2,3,4-tetrahydroquinazoline], over 10000 nM.
For the compound `CSc1nc2c(C)cccc2c(=O)n1-c1ccccc1Br` [TC3.22, 3-(2-Bromophenyl)-8-methyl-2-methylthio-4-oxo-3,4-dihydroquinazoline], the “maximum concentration at which more than 80% cellular viability was maintained in comparison to the control of cells without inhibitor” value in data set [1] (mouse, 48 h) stood at 5 µM. Further, the IC50 in data set [3] was 1100 ± 200 nM; in data set [2] it was 270 ± 20 nM.
In the case of `CSc1nc2ccc(Br)cc2c(=O)n1-c1ccccc1` [TC3.47A, 6-Bromo-3-phenyl-2-methylthio-4-oxo-3,4-dihydroquinazoline], in data set [2], the IC50 is over 1000 nM.

Values taken from US20100152213A1, “COMPOUND THAT IS A DUAL INHIBITOR OF ENZYMES PDE7 AND/OR PDE4, PHARMACEUTICAL COMPOSITIONS AND USES THEREOF” (priority 2007, published 2010).
